Values joined by “and” are separate entries in the source; they are usually repeats but may differ in a detail not shown here. Equal values may be shown once. Toxic doses and inconclusive results are not listed. No stated cut-off is given here; in the data, active means T/C of 150% or more; inactive means T/C below 125%.
Test system: L1210 leukemia ip in BDF1 mice, survival T/C
Assay: NCI In Vivo Anticancer Drug Screen. Data for tumor model L1210 Leukemia (intraperitoneal) in B6D2F1 (BDF1) mice
Conditions: endpoint: mean survival time, higher = longer survival
How it was run: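 Each compound was tested against a transplantable tumor grown in mice. The endpoint was survival, with treated animals benchmarked against vehicle controls as a simple ratio.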

[1] = dose: 100.0 mg/kg/injection, schedule: Q01DX001 (ip), vehicle: saline
[2] = dose: 100.0 mg/kg/injection, schedule: Q04DX003 (ip), vehicle: saline
[3] = dose: 200.0 mg/kg/injection, schedule: Q01DX001 (ip), vehicle: saline
[4] = dose: 200.0 mg/kg/injection, schedule: Q04DX003 (ip), vehicle: saline
[5] = dose: 100.0 mg/kg/injection, schedule: Q04DX003 (ip), vehicle: saline with Tween-80
[6] = dose: 200.0 mg/kg/injection, schedule: Q04DX003 (ip), vehicle: saline with Tween-80
[7] = dose: 400.0 mg/kg/injection, schedule: Q04DX003 (ip), vehicle: saline with Tween-80
[8] = dose: 100.0 mg/kg/injection, schedule: Q01DX009 (ip), vehicle: Klucel (hydroxypropylcellulose) (HPC)
[9] = dose: 100.0 mg/kg/injection, schedule: Q04DX003 (ip), vehicle: Klucel (hydroxypropylcellulose) (HPC)
[10] = dose: 200.0 mg/kg/injection, schedule: Q01DX009 (ip), vehicle: Klucel (hydroxypropylcellulose) (HPC)
[11] = dose: 200.0 mg/kg/injection, schedule: Q04DX003 (ip), vehicle: Klucel (hydroxypropylcellulose) (HPC)
[12] = dose: 400.0 mg/kg/injection, schedule: Q01DX009 (ip), vehicle: Klucel (hydroxypropylcellulose) (HPC)
[13] = dose: 400.0 mg/kg/injection, schedule: Q04DX003 (ip), vehicle: Klucel (hydroxypropylcellulose) (HPC)
[14] = dose: 100.0 mg/kg/injection, schedule: Q01DX001 (ip), vehicle: other
[15] = dose: 200.0 mg/kg/injection, schedule: Q01DX001 (ip), vehicle: other
[16] = dose: 400.0 mg/kg/injection, schedule: Q01DX001 (ip), vehicle: other
[17] = dose: 50.0 mg/kg/injection, schedule: Q01DX001 (ip), vehicle: saline
[18] = dose: 400.0 mg/kg/injection, schedule: Q01DX001 (ip), vehicle: saline
[19] = dose: 100.0 mg/kg/injection, schedule: Q04DX002 (ip), vehicle: Klucel (hydroxypropylcellulose) (HPC)

Measured: T/C

O=S(=O)(O)F
inactive: dose: 50.0 mg/kg/injection, schedule: Q04DX003 (ip), vehicle: saline 96 % of control | [1] 94 % of control | [2] 89 % of control | [3] 94 % of control | [4] 96 % of control

CCCCCCCCCCCCCCCCCCOC(C)OCCCCCCCCCCCCCCCCCC
inactive: [5] 89 % of control | [6] 89 % of control | [7] 87 % of control

CCCCc1ccc(C(=O)c2ccccc2)c2c1C(=O)c1ccccc1C2=O
inactive: [8] 97 % of control | [9] 92 % of control | [10] 94 % of control | [11] 92 % of control | [12] 95 % of control | [13] 96 % of control

CSc1nc(N)c(N)c(SC)n1
inactive: dose: 16.0 mg/kg/injection, schedule: Q01DX Z (ip), vehicle: methylcellulose (MC) 91 % of control | dose: 31.0 mg/kg/injection, schedule: Q01DX Z (ip), vehicle: methylcellulose (MC) 93 % of control | dose: 62.0 mg/kg/injection, schedule: Q01DX Z (ip), vehicle: methylcellulose (MC) 96 % of control | [14] 102 % of control | dose: 100.0 mg/kg/injection, schedule: Q04DX003 (ip), vehicle: other 94 % of control | dose: 125.0 mg/kg/injection, schedule: Q01DX Z (ip), vehicle: methylcellulose (MC) 93 % of control | [15] 101 % of control | dose: 200.0 mg/kg/injection, schedule: Q04DX003 (ip), vehicle: other 96 % of control | [16] 96 % of control | dose: 400.0 mg/kg/injection, schedule: Q04DX003 (ip), vehicle: other 102 % of control

C=CCN(CC=C)CCNc1nc(C(Cl)(Cl)Cl)nc2ccc(Cl)cc12
inactive: [5] 102 % of control | [6] 87 % of control

CC(C)(C)NC(=O)C(Cl)(Cl)Cl
inactive: dose: 31.25 mg/kg/injection, schedule: Q01DX009 (ip), vehicle: Klucel (hydroxypropylcellulose) (HPC) 98 % of control | dose: 62.5 mg/kg/injection, schedule: Q01DX009 (ip), vehicle: Klucel (hydroxypropylcellulose) (HPC) 107 % of control | dose: 125.0 mg/kg/injection, schedule: Q01DX009 (ip), vehicle: Klucel (hydroxypropylcellulose) (HPC) 109 % of control | dose: 250.0 mg/kg/injection, schedule: Q01DX009 (ip), vehicle: Klucel (hydroxypropylcellulose) (HPC) 94 % of control

COc1ccc(C(=O)NC(=S)Nc2cccc(C)c2C)cc1
inactive: [8] 102 % of control | [9] 93 % of control | [10] 102 % of control | [11] 89 % of control | [12] 95 % of control | [13] 98 % of control

Cc1cc(N(CCCl)CCCl)ccc1C=Nc1ccccc1C(=O)O
inactive: [17] 94 % of control | dose: 50.0 mg/kg/injection, schedule: Q01DX009 (ip), vehicle: Klucel (hydroxypropylcellulose) (HPC) 106 % of control | dose: 100.0 mg/kg/injection, schedule: Q01DX001 (ip), vehicle: Klucel (hydroxypropylcellulose) (HPC) 94 % of control | [1] 105 % of control | [8] 113 % of control | dose: 200.0 mg/kg/injection, schedule: Q01DX001 (ip), vehicle: Klucel (hydroxypropylcellulose) (HPC) 103 % of control | [3] 103 % of control | [10] 120 % of control | dose: 400.0 mg/kg/injection, schedule: Q01DX001 (ip), vehicle: Klucel (hydroxypropylcellulose) (HPC) 101 % of control | [18] 105 % of control | [12] 98 % of control

O=C(Nc1ccccc1)C(Br)c1ccccc1 (stereo not drawn)
inactive: [2] 91 % of control | [4] 90 % of control

Cc1ccc(C(=NN=C(N)N)c2ccc(C)cc2)cc1
inactive: dose: 3.75 mg/kg/injection, schedule: Q01DX Z (ip), vehicle: saline 101 % of control | dose: 7.5 mg/kg/injection, schedule: Q01DX Z (ip), vehicle: saline 95 % of control | dose: 7.5 mg/kg/injection, schedule: Q01DX Z (oral), vehicle: saline 98 % of control | dose: 15.0 mg/kg/injection, schedule: Q01DX Z (ip), vehicle: saline 93 % of control and 94 % of control | dose: 15.0 mg/kg/injection, schedule: Q01DX Z (oral), vehicle: saline 96 % of control | dose: 30.0 mg/kg/injection, schedule: Q01DX Z (ip), vehicle: saline 104 % of control | dose: 30.0 mg/kg/injection, schedule: Q01DX Z (oral), vehicle: saline 101 % of control | dose: 60.0 mg/kg/injection, schedule: Q01DX Z (oral), vehicle: saline 101 % of control

CCCC(=O)OCc1cnc(SC)nc1N
inactive: [1] 100 % of control | [3] 97 % of control | [18] 93 % of control

C/C(=N\N=C(/C)c1ccccc1O)c1ccccc1O
inactive: dose: 100.0 mg/kg/injection, schedule: Q04DX002 (ip), vehicle: gum acacia 96 % of control | dose: 200.0 mg/kg/injection, schedule: Q04DX002 (ip), vehicle: gum acacia 93 % of control | dose: 400.0 mg/kg/injection, schedule: Q04DX002 (ip), vehicle: gum acacia 101 % of control

CCCCC/C(=N/NC(N)=O)C(OC)OC
inactive: [14] 92 % of control | [15] 92 % of control | [16] 97 % of control

CCOC(=O)CCc1ccc(O)c(O)c1
inactive: dose: 100.0 mg/kg/injection, schedule: Q01DX009 (ip), vehicle: saline 100 % of control | [2] 92 % of control | dose: 200.0 mg/kg/injection, schedule: Q01DX009 (ip), vehicle: saline 102 % of control | [4] 111 % of control | dose: 400.0 mg/kg/injection, schedule: Q04DX003 (ip), vehicle: saline 101 % of control

CCCCCCCCCCCCCCCCCC1=NCCN1
inactive: dose: 6.25 mg/kg/injection, schedule: Q01DX009 (ip), vehicle: Klucel (hydroxypropylcellulose) (HPC) 95 % of control | dose: 12.5 mg/kg/injection, schedule: Q01DX009 (ip), vehicle: Klucel (hydroxypropylcellulose) (HPC) 87 % of control | dose: 25.0 mg/kg/injection, schedule: Q01DX009 (ip), vehicle: Klucel (hydroxypropylcellulose) (HPC) 92 % of control | dose: 25.0 mg/kg/injection, schedule: Q04DX002 (ip), vehicle: Klucel (hydroxypropylcellulose) (HPC) 103 % of control | dose: 50.0 mg/kg/injection, schedule: Q01DX001 (ip), vehicle: other 91 % of control | dose: 50.0 mg/kg/injection, schedule: Q04DX002 (ip), vehicle: Klucel (hydroxypropylcellulose) (HPC) 103 % of control | [14] 97 % of control | [19] 95 % of control and 98 % of control | [15] 89 % of control | [16] 97 % of control

CCOC(=O)c1c[nH]c(=O)n(-c2ccccc2)c1=O
inactive: [9] 109 % of control | [11] 92 % of control | [13] 106 % of control

O=C(NCCCl)NC1OCC(O)C(O)C1O (stereo not drawn)
inactive: [1] 112 % of control | [3] 97 % of control | [18] 103 % of control

NCCC1=NCCN1
inactive: [19] 100 % of control | dose: 200.0 mg/kg/injection, schedule: Q04DX002 (ip), vehicle: Klucel (hydroxypropylcellulose) (HPC) 104 % of control | dose: 400.0 mg/kg/injection, schedule: Q04DX002 (ip), vehicle: Klucel (hydroxypropylcellulose) (HPC) 104 % of control

O=C(O)C1OC(n2cc(F)c(=O)[nH]c2=O)CC1O (stereo not drawn)
inactive: [17] 101 % of control | [1] 101 % of control | [3] 98 % of control | [18] 110 % of control

O=C(Nc1ccc(F)cc1)c1cccc(C(=O)Nc2ccc(F)cc2)c1
inactive: dose: 25.0 mg/kg/injection, schedule: Q04DX003 (ip), vehicle: saline with Tween-80 96 % of control | dose: 50.0 mg/kg/injection, schedule: Q04DX003 (ip), vehicle: saline with Tween-80 93 % of control | [5] 95 % of control and 87 % of control

COc1ccc2c(c1)C(=O)c1ccccc1-2
inactive: [5] 101 % of control | [6] 98 % of control | [7] 109 % of control

CCC1(CCC#N)CCc2[nH]c3ccccc3c2C1=O (stereo not drawn)
inactive: dose: 100.0 mg/kg/injection, schedule: Q04DX002 (ip), vehicle: saline with Tween-80 108 % of control | dose: 200.0 mg/kg/injection, schedule: Q04DX002 (ip), vehicle: saline with Tween-80 94 % of control | dose: 400.0 mg/kg/injection, schedule: Q04DX002 (ip), vehicle: saline with Tween-80 87 % of control

— PubChem BioAssay AID248 (DTP/NCI, 2004)
